According to PMC12386283, “Elucidating the Complex Structural and Molecular Mechanisms Driving P-Glycoprotein-Mediated Transport of Cardiac Glycosides” (International Journal of Molecular Sciences, 2025):

Experiments:
[1] = target: T1, wild-type mouse Pgp (MDR3) (Mus musculus, UniProt P21447)
Procedure: (§1) Overexpression of wild-type mouse Pgp (MDR3) was achieved by using genetically engineered strains of Pichia pastoris with a 6X histidine tag. The cells were cultured in glycerol media, and methanol was used to induce the overexpression of Pgp at the Bioexpression and Fermentation Facility (BFF), University of Georgia, Athens, GA, USA. A repeated cycle of freezing using liquid nitrogen, blending, and thawing was used to lyse the Pgp-expressing P. pastoris cells. The protein was purified using affinity chromatography with nickel-nitrilotriacetic acid (Ni-NTA) resin (Thermo Fisher Scientific, Waltham, MA, USA). DDM was used to solubilize the protein, and the solution was concentrated using Amicon Ultra-15 100 kDa cut-off filters (EMD Millipore, Billerica, MA, USA). The concentration of purified protein was measured at 280 nm using a calculated extinction coefficient of 1.28 per mg mL^−1 on a Nanodrop (DeNovix, Wilmington, DE, USA). […] The purified DDM-solubilized Pgp was aliquoted and stored at −80 °C for future analysis.
(§2) Approximately 40 µL of DDM-solubilized Pgp was dialyzed for two hours against HEPES buffer (20 mM HEPES, 100 mM NaCl, 5 mM MgCl2, 2 mM DTT, pH 7.4) to remove any remnants of the detergent, DDM. The dialyzed protein was mixed with 4 mg mL^−1 of the extruded liposomes and incubated on ice for at least one hour to allow Pgp to integrate into the liposomes. To remove any additional detergent and further facilitate Pgp integration into the liposome, the solution was dialyzed for a second time for two hours in HEPES buffer to form proteoliposomes, and the concentration of Pgp reconstituted in liposomes was determined using the Bio-Rad DC Protein assay. Finally, the solution was aliquoted and stored at −80 °C for future use.
Acrylamide, an aqueous collisional quencher, can be used to determine the changes in conformation upon Pgp-drug interaction. The principle of this technique is that as the drug interacts with the protein, the conformation of the accessible tryptophan residues in the protein also changes, resulting in a shift in fluorescence intensity. For this experiment, to measure the fluorescence of Pgp reconstituted in liposomes, in the presence (250 µM) or absence of drug(s), the excitation and emission wavelengths used were 295 nm and 330 nm, respectively. The proteoliposomes were diluted to a final concentration of 1 µM in Chifflet buffer (pH 7.4) containing 2 mM DTT, and it was titrated against an increasing concentration of acrylamide. A concentration of 11 µM N-acetyl-L-tryptophanamide (NATA), an analog of tryptophan, was used as a positive control to determine non-specific quenching. A saturated concentration of AMPPNP (3.2 mM), a non-hydrolysable form of ATP, was used to generate an outward-open conformation of Pgp. All the experiments for acrylamide quenching were performed at 21 °C. To correct the fluorescence intensities for background, dilution, and inner filter effects, […] was used. A Stern–Volmer plot was constructed with F0(corrected)/F(corrected) versus acrylamide concentration. The slope of the curve determined the degree of quenching, and it was related to the Stern–Volmer constant (Ksv) by Equation (4), as follows:(4) Focorrected/Fcorrected=1+KsvQ where F0(corrected)/F(corrected) = Stern–Volmer plot; Ksv = Stern–Volmer constant; and [Q] = acrylamide concentration.

[2] = target: T1, wild-type mouse Pgp (MDR3); experiment: biochemical
Procedure: as §1, §2
The intrinsic tryptophan residues in the protein can be selectively excited and emitted at 295 nm and 330 nm wavelengths, respectively. The binding of the drug to the protein can alter the spatial arrangement encountered by the tryptophan residue(s) and thereby regulate the fluorescence intensity of the protein [52]. […] Proteoliposomes diluted to 1 µM in Chifflet buffer containing 2 mM DTT were titrated against varying concentrations of drugs. The intrinsic protein fluorescence was measured at 330 nm upon excitation at 295 nm using an Olis DM 45 spectrophotometer (Olis Corporation, Bogart, GA, USA). To nullify the effect of Rayleigh bands on the observed spectra, a 10 nm band-pass filter was inserted on the excitation and emission paths of the spectrophotometer. The drug-induced quenching of intrinsic Pgp fluorescence was corrected (Fcorrected) for factors such as dilution, background fluorescence, and inner filter effects using the equation mentioned below (Equation (2)).(2) Fcorrected=F−B10^εexbex+εembemQ/2 where Fcorrected = Drug-induced quenching of intrinsic Pgp fluorescence; F = Emitted intrinsic Pgp fluorescence at 330 nm; [Q] = Concentration of drug; εex and εem = Excitation and emission extinction coefficients, respectively; bex and bem = Path lengths of excitation (0.4 mm) and emission (10 mm) wavelengths, respectively; and B = Background fluorescence measured from drug and solvent.
The resulting quenching curves were fit using a modified Stern-Volmer equation (Equation (3)), as follows:(3) Fcorrected=FOcorrected/1+KsvQ+Funquenched where Fcorrected = The corrected fluorescence; F0(corrected) = Fluorescence recorded in the absence of drug; [Q] = Concentration of drug; Ksv = Stern–Volmer constant; and F(unquenched) = unquenched fluorescence.

[3] = target: T1, wild-type mouse Pgp (MDR3); conditions: mouse, not told, pH 7.4
Description: The STDD NMR technique is a robust method used to characterize the interaction between a drug and receptor protein [36, 86]. This technique utilizes a saturated low-strength radio frequency (RF) to selectively excite the receptor protein. […] Due to the localization of Pgp, most of its substrates are lipophilic, resulting in a probable non-specific interaction between its substrates and liposomes in the observed STD NMR spectrum. Therefore, STD NMR of liposomes in the presence of drugs was performed. The resulting spectrum was subtracted from the ^1H STD NMR spectrum obtained from the drug in the presence of proteoliposome (Pgp reconstituted into liposome) to achieve a saturation transfer double-difference (STDD) NMR spectrum, which nullified the STD observations of the drugs in the presence of liposomes.
This technique was performed as previously described. […] The NMR tubes with the sample were centrifuged at 3000× g for 5 min. To suppress the background signals caused by water, a tailored gradient pulse sequence known as water suppression by gradient-tailored excitation (WATERGATE) was also included. A train of 50 ms Gaussian-shaped selective pulses was used to selectively excite and saturate Pgp for two seconds, and a relaxation delay of five seconds was also used. The STD NMR spectra for both the control and the samples were obtained through phase cycling, where the Pgp irradiation resonance was alternated between 1.5 ppm and 42 ppm on and off resonance, respectively, for 512 scans, creating the ^1H NMR spectrum.
For this experiment, the NMR studies were performed on a Bruker Avance NEO 800 MHz NMR spectrometer with a 1.7 mm TCI H{CN} probe at 25 °C. The STD NMR data generated were analyzed using iNMR software (Nucleomatic, Molfetta, Italy), Igor Pro 6.2, and Mnova 14.2.0 (Mastrelab Research S.L., Santiago de Compostela, Spain).

T1 sequence (P21447 whole entry): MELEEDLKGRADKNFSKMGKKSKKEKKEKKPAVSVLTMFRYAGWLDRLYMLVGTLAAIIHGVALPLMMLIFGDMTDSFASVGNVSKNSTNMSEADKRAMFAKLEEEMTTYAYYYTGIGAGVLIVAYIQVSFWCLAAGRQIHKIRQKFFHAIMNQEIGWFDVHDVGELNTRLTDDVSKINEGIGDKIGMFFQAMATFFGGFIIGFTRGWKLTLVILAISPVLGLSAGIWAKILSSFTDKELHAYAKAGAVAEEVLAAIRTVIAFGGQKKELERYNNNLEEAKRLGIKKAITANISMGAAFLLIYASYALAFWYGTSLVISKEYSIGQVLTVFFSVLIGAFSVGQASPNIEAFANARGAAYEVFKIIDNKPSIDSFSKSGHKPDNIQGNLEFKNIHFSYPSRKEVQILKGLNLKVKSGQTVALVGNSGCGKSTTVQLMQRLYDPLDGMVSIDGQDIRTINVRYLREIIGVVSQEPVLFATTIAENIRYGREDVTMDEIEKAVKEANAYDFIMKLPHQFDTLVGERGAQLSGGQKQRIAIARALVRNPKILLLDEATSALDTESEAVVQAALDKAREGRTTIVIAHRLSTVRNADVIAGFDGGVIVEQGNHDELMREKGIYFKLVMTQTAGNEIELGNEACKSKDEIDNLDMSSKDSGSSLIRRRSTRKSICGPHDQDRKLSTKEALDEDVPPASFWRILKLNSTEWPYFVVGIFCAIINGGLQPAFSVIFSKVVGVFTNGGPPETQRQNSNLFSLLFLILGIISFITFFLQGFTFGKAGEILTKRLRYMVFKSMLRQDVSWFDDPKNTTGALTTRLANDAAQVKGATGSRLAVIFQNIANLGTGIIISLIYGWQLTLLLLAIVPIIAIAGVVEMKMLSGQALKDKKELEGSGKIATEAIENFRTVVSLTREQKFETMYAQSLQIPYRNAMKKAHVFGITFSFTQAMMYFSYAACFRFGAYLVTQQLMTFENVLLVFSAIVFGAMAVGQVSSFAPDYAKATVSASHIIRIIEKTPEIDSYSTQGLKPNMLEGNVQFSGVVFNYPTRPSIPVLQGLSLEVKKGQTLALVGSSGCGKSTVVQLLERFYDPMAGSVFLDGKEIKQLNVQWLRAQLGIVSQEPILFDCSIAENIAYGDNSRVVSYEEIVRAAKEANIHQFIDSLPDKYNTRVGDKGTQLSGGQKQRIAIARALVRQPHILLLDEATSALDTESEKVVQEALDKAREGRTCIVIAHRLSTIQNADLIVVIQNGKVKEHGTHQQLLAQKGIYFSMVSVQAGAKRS

In the case of `Nc1ncnc2c1ncn2[C@@H]1O[C@H](COP(=O)([O-])OP(=O)([O-])NP(=O)([O-])[O-])[C@@H](O)[C@H]1O.[Li+].[Li+].[Li+].[Li+]` [AMPPNP, Adenosine 5′-(β,γ-imido) triphosphate lithium salt], the “Ksv of Pgp (acrylamide quenching) in the presence of AMPPNP alone” value [1] is reported as 1.6 ± 0.01 M⁻¹.
`C[C@H]1O[C@@H](O[C@H]2[C@@H](O)C[C@H](O[C@H]3[C@@H](O)C[C@H](O[C@H]4CC[C@@]5(C)[C@H](CC[C@@H]6[C@@H]5CC[C@]5(C)[C@@H](C7=CC(=O)OC7)CC[C@]65O)C4)O[C@@H]3C)O[C@@H]2C)C[C@H](O)[C@@H]1O` [Digitoxin] was tested, and the Kd [2] was 16.7 ± 4.44 µM, the “Pgp conformation upon drug binding in the absence of a nucleotide” value [1] was “intermediate” and the “Interaction (Region/Group) Pgp (STDD-NMR Data)” value [3] was “Protons on C3,C17, C18, C19 of steroid; C22 of lactone; C3,C5,C6 of sugar”.
